Assay results published in ChEMBL document CHEMBL5338817, “Discovery of Exceptionally Potent, Selective, and Efficacious PROTAC Degraders of CBP and p300 Proteins” (J Med Chem, 2023).
Where “and” joins values, the source holds several entries; their conditions need not be identical. Equal entries are not always repeated. Calls of active or inactive are those of the source. The calls are words filed in the database; no cut-off is given here.

What was measured:
[1] = biological target: T1, Histone acetyltransferase p300 (Homo sapiens, UniProt Q09472); assay: Induction of p300 degradation in human RS4-11 cells assessed as maximal degradation incubated for 4 hrs by Western blot assay relative to control; type: cell-based
[2] = tested on: RS4-11; assay: Cytotoxicity against human RS4-11 cells assessed as inhibition of cell growth incubated for 4 days by cellTiter-Glo assay; type: functional, cell-based; conditions: RS4-11, 96 h
[3] = biological target: T2, CREB-binding protein (Homo sapiens, UniProt Q92793); assay: Induction of CBP degradation in human RS4-11 cells incubated for 4 hrs by Western blot assay; type: cell-based
Target sequence in this assay (Q92793 whole entry): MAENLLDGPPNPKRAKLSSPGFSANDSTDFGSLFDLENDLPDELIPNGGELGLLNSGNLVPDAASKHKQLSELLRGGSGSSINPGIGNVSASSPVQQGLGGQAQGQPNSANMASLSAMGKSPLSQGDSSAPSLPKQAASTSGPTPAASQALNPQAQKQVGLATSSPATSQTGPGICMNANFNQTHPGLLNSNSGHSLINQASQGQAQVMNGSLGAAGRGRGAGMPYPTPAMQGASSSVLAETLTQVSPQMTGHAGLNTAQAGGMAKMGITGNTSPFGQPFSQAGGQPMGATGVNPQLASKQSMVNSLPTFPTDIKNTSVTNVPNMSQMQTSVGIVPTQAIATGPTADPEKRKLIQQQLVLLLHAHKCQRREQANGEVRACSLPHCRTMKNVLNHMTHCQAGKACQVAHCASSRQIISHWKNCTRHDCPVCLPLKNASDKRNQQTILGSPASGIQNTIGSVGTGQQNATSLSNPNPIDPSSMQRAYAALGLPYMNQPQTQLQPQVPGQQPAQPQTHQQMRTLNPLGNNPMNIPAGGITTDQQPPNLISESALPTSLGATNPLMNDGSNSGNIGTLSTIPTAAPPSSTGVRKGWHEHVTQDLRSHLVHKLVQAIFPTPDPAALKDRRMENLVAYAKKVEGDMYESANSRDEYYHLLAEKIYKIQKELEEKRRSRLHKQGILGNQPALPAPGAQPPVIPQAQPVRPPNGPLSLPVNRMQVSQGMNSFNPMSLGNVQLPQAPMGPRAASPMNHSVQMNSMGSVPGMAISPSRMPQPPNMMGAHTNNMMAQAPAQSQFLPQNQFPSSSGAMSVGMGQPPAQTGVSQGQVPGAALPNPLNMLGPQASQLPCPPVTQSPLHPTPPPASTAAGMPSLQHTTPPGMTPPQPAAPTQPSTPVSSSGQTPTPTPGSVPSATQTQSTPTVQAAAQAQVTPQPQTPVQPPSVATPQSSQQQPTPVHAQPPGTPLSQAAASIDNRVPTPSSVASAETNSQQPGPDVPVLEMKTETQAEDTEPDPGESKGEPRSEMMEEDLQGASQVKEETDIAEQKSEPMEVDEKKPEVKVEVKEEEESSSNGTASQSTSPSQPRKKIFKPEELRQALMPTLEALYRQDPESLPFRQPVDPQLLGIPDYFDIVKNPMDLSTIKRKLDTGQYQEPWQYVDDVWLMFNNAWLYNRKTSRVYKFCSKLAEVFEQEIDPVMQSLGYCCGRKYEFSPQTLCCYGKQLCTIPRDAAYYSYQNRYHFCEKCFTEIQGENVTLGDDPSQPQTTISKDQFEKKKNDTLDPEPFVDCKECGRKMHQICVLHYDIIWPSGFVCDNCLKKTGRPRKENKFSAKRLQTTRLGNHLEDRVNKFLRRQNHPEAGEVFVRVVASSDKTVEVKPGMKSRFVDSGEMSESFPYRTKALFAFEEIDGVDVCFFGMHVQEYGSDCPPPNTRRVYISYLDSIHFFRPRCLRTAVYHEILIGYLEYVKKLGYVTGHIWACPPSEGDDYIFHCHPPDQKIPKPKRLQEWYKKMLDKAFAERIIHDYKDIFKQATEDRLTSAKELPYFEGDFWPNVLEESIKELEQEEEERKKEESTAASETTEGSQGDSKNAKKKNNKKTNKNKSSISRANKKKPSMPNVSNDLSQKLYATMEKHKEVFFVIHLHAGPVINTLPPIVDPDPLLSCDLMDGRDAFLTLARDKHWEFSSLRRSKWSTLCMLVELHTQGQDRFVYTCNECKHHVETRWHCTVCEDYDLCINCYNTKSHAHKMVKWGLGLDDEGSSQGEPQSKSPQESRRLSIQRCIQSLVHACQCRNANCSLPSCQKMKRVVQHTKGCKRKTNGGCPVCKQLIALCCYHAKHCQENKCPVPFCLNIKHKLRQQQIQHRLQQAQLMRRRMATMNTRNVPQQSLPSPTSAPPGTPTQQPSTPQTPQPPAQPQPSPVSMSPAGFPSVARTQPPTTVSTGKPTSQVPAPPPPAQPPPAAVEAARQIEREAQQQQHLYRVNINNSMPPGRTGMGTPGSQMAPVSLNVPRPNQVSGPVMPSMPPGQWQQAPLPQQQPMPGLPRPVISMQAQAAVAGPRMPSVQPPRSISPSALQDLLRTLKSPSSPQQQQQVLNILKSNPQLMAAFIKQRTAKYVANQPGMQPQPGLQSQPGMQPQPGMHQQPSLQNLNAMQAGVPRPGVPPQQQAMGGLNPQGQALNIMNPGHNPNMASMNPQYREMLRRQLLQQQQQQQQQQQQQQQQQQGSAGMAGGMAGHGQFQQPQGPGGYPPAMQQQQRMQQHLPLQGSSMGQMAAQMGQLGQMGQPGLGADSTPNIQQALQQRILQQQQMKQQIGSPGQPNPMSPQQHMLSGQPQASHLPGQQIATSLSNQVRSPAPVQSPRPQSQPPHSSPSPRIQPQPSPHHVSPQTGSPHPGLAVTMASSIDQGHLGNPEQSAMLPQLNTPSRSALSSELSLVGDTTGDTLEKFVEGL

[4] = tested on: RS4-11; assay: Cytotoxicity against human RS4-11 cells assessed as maximum inhibition of cell growth incubated for 4 days by cellTiter-Glo assay relative to control; type: functional; conditions: time 4 day
[5] = biological target: T2, CREB-binding protein; assay: Induction of CBP degradation in human RS4-11 cells assessed as maximal degradation incubated for 4 hrs by Western blot assay; type: cell-based
Target sequence in this assay (Q92793 2-2442 limits assumed): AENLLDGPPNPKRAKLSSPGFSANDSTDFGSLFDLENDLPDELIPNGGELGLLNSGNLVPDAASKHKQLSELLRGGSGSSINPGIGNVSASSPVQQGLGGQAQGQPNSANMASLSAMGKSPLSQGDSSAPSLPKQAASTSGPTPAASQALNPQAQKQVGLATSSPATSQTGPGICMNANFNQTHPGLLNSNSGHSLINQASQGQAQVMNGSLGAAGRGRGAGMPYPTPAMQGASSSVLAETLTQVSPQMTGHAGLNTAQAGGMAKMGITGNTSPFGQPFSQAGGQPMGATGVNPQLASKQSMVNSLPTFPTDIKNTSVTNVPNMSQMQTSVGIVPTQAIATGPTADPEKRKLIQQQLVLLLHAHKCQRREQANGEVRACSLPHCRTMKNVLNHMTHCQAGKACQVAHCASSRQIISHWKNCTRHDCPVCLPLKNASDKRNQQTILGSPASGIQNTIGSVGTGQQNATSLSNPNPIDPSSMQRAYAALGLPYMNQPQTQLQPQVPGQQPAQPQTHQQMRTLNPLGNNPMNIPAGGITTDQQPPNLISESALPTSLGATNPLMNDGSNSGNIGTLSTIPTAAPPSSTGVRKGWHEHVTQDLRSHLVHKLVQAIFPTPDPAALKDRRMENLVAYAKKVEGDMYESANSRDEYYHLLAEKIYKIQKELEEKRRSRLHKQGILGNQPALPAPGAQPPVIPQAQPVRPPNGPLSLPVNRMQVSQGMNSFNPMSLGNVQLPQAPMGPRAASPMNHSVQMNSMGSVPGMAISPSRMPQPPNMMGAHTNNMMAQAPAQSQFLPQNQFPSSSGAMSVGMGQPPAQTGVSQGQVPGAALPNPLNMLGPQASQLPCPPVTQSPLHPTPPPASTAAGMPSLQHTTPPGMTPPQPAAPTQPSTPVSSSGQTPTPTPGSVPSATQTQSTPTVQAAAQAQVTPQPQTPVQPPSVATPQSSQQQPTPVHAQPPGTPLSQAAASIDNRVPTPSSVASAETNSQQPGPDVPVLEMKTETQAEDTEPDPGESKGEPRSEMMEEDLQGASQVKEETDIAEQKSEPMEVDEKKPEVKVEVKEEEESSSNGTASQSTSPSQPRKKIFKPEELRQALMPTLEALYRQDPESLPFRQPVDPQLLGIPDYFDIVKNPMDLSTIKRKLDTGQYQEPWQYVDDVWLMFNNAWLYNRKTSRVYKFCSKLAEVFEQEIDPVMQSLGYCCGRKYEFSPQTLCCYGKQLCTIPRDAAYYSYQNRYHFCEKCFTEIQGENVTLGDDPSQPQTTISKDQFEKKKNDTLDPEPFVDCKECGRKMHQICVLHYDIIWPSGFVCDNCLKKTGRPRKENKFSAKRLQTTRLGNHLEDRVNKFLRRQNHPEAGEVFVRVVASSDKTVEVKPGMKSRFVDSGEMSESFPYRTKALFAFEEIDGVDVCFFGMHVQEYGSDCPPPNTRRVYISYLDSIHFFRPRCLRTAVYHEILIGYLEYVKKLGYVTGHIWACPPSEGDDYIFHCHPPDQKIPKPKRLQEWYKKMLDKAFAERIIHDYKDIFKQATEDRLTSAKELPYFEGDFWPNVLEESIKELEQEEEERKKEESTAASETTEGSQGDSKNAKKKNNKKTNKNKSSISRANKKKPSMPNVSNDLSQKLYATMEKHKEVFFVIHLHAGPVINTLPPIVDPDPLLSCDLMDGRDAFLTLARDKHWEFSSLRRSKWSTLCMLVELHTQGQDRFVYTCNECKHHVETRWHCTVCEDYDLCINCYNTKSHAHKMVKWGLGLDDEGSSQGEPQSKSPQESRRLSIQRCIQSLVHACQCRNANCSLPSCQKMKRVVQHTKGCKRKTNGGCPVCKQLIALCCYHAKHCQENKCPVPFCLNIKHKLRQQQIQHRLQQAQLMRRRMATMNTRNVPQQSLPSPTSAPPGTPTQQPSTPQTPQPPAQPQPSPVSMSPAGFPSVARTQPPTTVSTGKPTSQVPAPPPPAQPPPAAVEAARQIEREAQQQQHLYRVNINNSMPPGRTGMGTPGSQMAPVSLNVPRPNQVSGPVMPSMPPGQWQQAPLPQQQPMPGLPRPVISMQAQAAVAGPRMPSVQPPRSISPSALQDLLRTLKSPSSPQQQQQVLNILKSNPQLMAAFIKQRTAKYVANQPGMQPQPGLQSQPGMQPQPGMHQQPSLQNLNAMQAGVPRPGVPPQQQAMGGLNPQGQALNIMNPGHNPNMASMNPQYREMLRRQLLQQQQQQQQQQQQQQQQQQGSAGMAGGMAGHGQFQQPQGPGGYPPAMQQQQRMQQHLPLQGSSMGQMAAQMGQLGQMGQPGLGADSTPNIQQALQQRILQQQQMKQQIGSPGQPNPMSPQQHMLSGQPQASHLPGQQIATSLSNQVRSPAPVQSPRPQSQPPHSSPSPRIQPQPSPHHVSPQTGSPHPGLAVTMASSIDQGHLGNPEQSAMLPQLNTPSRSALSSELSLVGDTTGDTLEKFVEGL

[6] = biological target: T1, Histone acetyltransferase p300; assay: Induction of p300 degradation in human RS4-11 cells incubated for 4 hrs by Western blot assay; type: cell-based; conditions: for DC50: rs4-11
[7] = tested on: MV4-11; assay: Cytotoxicity against human MV4-11 cells assessed as maximum inhibition of cell growth incubated for 4 days by cellTiter-Glo assay relative to control; type: functional; conditions: time 4 day
[8] = tested on: MOLM-13; assay: Cytotoxicity against human MOLM-13 cells assessed as maximum inhibition of cell growth incubated for 4 days by cellTiter-Glo assay relative to control; type: functional; conditions: time 4 day
[9] = tested on: HL-60; assay: Cytotoxicity against human HL-60 cells assessed as maximum inhibition of cell growth incubated for 4 days by cellTiter-Glo assay relative to control; type: functional; conditions: time 4 day
[10] = tested on: HL-60; assay: Cytotoxicity against human HL-60 cells assessed as inhibition of cell growth incubated for 4 days by cellTiter-Glo assay; type: functional, cell-based; conditions: HL-60, 96 h
[11] = tested on: MOLM-13; assay: Cytotoxicity against human MOLM-13 cells assessed as inhibition of cell growth incubated for 4 days by cellTiter-Glo assay; type: functional, cell-based; conditions: MOLM-13, 96 h
[12] = tested on: MV4-11; assay: Cytotoxicity against human MV4-11 cells assessed as inhibition of cell growth incubated for 4 days by cellTiter-Glo assay; type: functional, cell-based; conditions: MV4-11, 96 h
[13] = tested on: RS4-11; assay: Induction of cell cycle arrest in human RS4-11 cells assessed as accumulation at G1 phase at 1 uM measured after 8 hrs by PI staining based flow cytometric analysis; type: functional

Structure (SMILES)	Emax [1] [%]	IC50 [2] [nM]	EC50 [3] [nM]	Imax [4] [%]	Emax [5] [%]	EC50 [6] [nM]	Imax [7] [%]	Imax [8] [%]	Imax [9] [%]	DC50 [6] [nM]	IC50 [10] [nM]	Imax ([4]; 96 h)	IC50 [11] [nM]	IC50 [12] [nM]	Activity [13]
CC(=O)N1CCc2c(c(-c3cccc4cc(-c5ccc(C(=O)NCCCCCCCCNc6cccc7c6C(=O)N(C6CCC(=O)NC6=O)C7=O)nc5)ncc34)nn2C2CCOCC2)C1 (stereo unspecified)	97	1.5	0.2	87	99	1.6	–	–	–	–	–	–	–	–	–
CNC(=O)c1ccc(-c2cc3cccc(-c4nn(C5CCOCC5)c5c4CN(C(C)=O)CC5)c3cn2)cn1	–	–	–	75	–	–	94	98	99	–	–	–	–	–	–
CC(=O)N1CCc2c(c(-c3cccc4cc(-c5ccc(C(=O)NCCCCCNc6cccc7c6C(=O)N(C6CCC(=O)NC6=O)C7=O)nc5)ncc34)nn2C2CCOCC2)C1 (stereo unspecified)	95	2.2	1	>95	92	0.3	–	–	–	–	–	–	–	–	–
CC(=O)N1CCc2c(c(-c3cccc4cc(-c5ccc(C(=O)N6CCN(c7cccc8c7C(=O)N(C7CCC(=O)NC7=O)C8=O)CC6)nc5)ncc34)nn2C2CCOCC2)C1 (stereo unspecified)	99	0.6	0.2	86	99	1.6	–	–	–	–	–	–	–	–	–
CC(=O)N1CCc2c(c(-c3cccc4cc(-c5ccc(C(=O)NCCCCNc6cccc7c6C(=O)N(C6CCC(=O)NC6=O)C7=O)nc5)ncc34)nn2C2CCOCC2)C1 (stereo unspecified)	77	0.4	1.3	>95	70	0.8	–	–	–	–	–	–	–	–	–
CC(=O)N1CCc2c(c(-c3cccc4cc(-c5ccc(C(=O)N6CC7(CC(Nc8cccc9c8C(=O)N(C8CCC(=O)NC8=O)C9=O)C7)C6)nc5)ncc34)nn2C2CCOCC2)C1 (stereo unspecified)	95	11	0.3	85	99	1.1	–	–	–	–	–	–	–	–	–
CC(=O)N1CCc2c(c(-c3cccc4cc(-c5ccc(C(=O)NCCCCCc6cccc7c6CN(C6CCC(=O)NC6=O)C7=O)nc5)ncc34)nn2C2CCOCC2)C1 (stereo unspecified)	99	0.2	0.2	>95	99	–	–	–	–	0.1	–	–	–	–	–
C[C@H](N(Cc1ccc(F)cc1)C(=O)CN1C(=O)O[C@@]2(CCc3cc(NC(=O)CCCCCCCCCCCNc4ccc5c(c4)C(=O)N(C4CCC(=O)NC4=O)C5=O)ccc32)C1=O)C(F)(F)F (stereo partly specified)	–	91	–	99	–	–	–	–	–	–	–	–	–	–	–
CC(=O)N1CCc2c(c(-c3cccc4cc(-c5ccc(C(=O)N6CCC7(CC6)CC(Nc6cccc8c6C(=O)N(C6CCC(=O)NC6=O)C8=O)C7)nc5)ncc34)nn2C2CCOCC2)C1 (stereo unspecified)	51	51	1.7	71	96	9.3	–	–	–	–	–	–	–	–	–
CC(=O)N1CCc2c(c(-c3cccc4cc(-c5ccc(C(=O)N6CCC(Nc7cccc8c7C(=O)N(C7CCC(=O)NC7=O)C8=O)CC6)nc5)ncc34)nn2C2CCOCC2)C1 (stereo unspecified)	25	68	1.8	70	86	–	–	–	–	–	–	–	–	–	–
CC(=O)N1CCc2c(c(-c3cccc4cc(-c5ccc(C(=O)NCCCNc6ccc7c(c6)CN(C6CCC(=O)NC6=O)C7=O)nc5)ncc34)nn2C2CCOCC2)C1 (stereo unspecified)	99	0.1	< 0.1	>95	99	–	–	–	–	0.3	–	–	–	–	–
CC(=O)N1CCc2c(c(-c3cccc4cc(-c5ccc(C(=O)NCCNc6cccc7c6CN(C6CCC(=O)NC6=O)C7=O)nc5)ncc34)nn2C2CCOCC2)C1 (stereo unspecified)	97	1.3	0.6	85	99	–	–	–	–	1.8	–	–	–	–	–
CC(=O)N1CCc2c(c(-c3cccc4cc(-c5ccc(C(=O)N6CCC7(CCC(Nc8cccc9c8C(=O)N(C8CCC(=O)NC8=O)C9=O)CC7)CC6)nc5)ncc34)nn2C2CCOCC2)C1 (stereo unspecified)	10	70	–	65	21	–	–	–	–	–	–	–	–	–	–
CC(=O)N1CCc2c(c(-c3cccc4cc(-c5ccc(C(=O)N6CCC(C7CCN(c8cccc9c8C(=O)N(C8CCC(=O)NC8=O)C9=O)CC7)CC6)nc5)ncc34)nn2C2CCOCC2)C1 (stereo unspecified)	10	24	40	88	58	–	–	–	–	–	–	–	–	–	–
CNC(=O)Nc1ccc2c(c1)CC[C@]21CN(CC(=O)N(Cc2ccc(F)cc2)[C@H](C)C(F)(F)F)C(=O)O1	–	–	–	–	–	–	94	96	99	–	152	93.5% and 89% and 99%	239	156	–
CNC(=O)N1CCc2c(c(N3CCCc4cc(-c5cnn(C)c5)c(C(F)F)cc43)nn2C2CCN(C(=O)CCOCCOCCOCCOCCNc3ccc4c(c3)C(=O)N(C3CCC(=O)NC3=O)C4=O)CC2)C1 (stereo unspecified)	–	4.8	–	89	–	–	–	–	–	–	–	–	–	–	–
CC(=O)N1CCc2c(c(-c3cccc4cc(-c5ccc(C(=O)NCCCCc6cccc7c6CN(C6CCC(=O)NC6=O)C7=O)nc5)ncc34)nn2C2CCOCC2)C1 (stereo unspecified)	99	0.1	0.2	>95	80	–	–	–	–	< 0.1	–	–	–	–	–
CC(=O)N1CCc2c(c(-c3cccc4cc(-c5ccc(C(=O)NCCCNc6cccc7c6C(=O)N(C6CCC(=O)NC6=O)C7=O)nc5)ncc34)nn2C2CCOCC2)C1 (stereo unspecified)	90	0.1	1.2	>95	71	0.7	–	–	–	–	–	–	–	–	–
CC(=O)N1CCc2c(c(-c3cccc4cc(-c5ccc(C(=O)NC6CCN(c7ccc8c(c7)C(=O)N(C7CCC(=O)NC7=O)C8=O)CC6)nc5)ncc34)nn2C2CCOCC2)C1 (stereo unspecified)	99	20	1	83	99	1.9	–	–	–	–	–	–	–	–	–
CC(=O)N1CCc2c(c(-c3cccc4cc(-c5ccc(C(=O)NCCCCCCCNc6cccc7c6C(=O)N(C6CCC(=O)NC6=O)C7=O)nc5)ncc34)nn2C2CCOCC2)C1 (stereo unspecified)	87	1.6	12	90	99	2.3	–	–	–	–	–	–	–	–	–
CC(=O)N1CCc2c(c(-c3cccc4cc(-c5ccc(C(=O)NCCNc6ccc7c(c6)CN(C6CCC(=O)NC6=O)C7=O)nc5)ncc34)nn2C2CCOCC2)C1 (stereo unspecified)	73	0.1	1.1	>95	80	–	–	–	–	5.1	–	–	–	–	–
CC(=O)N1CCc2c(c(-c3cccc4cc(-c5ccc(C(=O)NCCCNc6cccc7c6CN(C6CCC(=O)NC6=O)C7=O)nc5)ncc34)nn2C2CCOCC2)C1 (stereo unspecified)	95	0.1	0.2	>95	98	–	–	–	–	1.8	–	–	–	–	–
CO[C@H]1CC[C@@H](n2c(C3CCCC(=O)N3c3ccc(F)c(F)c3)nc3cc(-c4c(C)noc4C)ccc32)CC1 (stereo partly specified)	–	544	–	99.8	–	–	98	99	99	–	30	–	23	51.6	Active
CC(=O)N1CCc2c(c(-c3cccc4cc(-c5ccc(C(=O)NCCCCCCNc6cccc7c6C(=O)N(C6CCC(=O)NC6=O)C7=O)nc5)ncc34)nn2C2CCOCC2)C1 (stereo unspecified)	87	0.3	0.6	80	99	0.6	–	–	–	–	–	–	–	–	–
CC(=O)N1CCc2c(c(-c3cccc4cc(-c5ccc(C(=O)NCCNc6cccc7c6C(=O)N(C6CCC(=O)NC6=O)C7=O)nc5)ncc34)nn2C2CCOCC2)C1 (stereo unspecified)	37	196	1.7	50	66	–	–	–	–	–	–	–	–	–	–
CC(=O)N1CCc2c(c(-c3cccc4cc(-c5ccc(C(=O)NCCCc6cccc7c6CN(C6CCC(=O)NC6=O)C7=O)nc5)ncc34)nn2C2CCOCC2)C1 (stereo unspecified)	99	0.5	3.3	95	95	–	–	–	–	0.3	–	–	–	–	–
CC(=O)N1CCc2c(c(-c3cccc4cc(-c5ccc(C(=O)N6CCC(C7CN(c8cccc9c8C(=O)N(C8CCC(=O)NC8=O)C9=O)C7)CC6)nc5)ncc34)nn2C2CCOCC2)C1 (stereo unspecified)	40	2.4	3.7	>95	85	–	–	–	–	–	–	–	–	–	–
CC(=O)N1CCc2c(c(-c3cccc4cc(-c5ccc(C(=O)N6CC7(CCC(Nc8cccc9c8C(=O)N(C8CCC(=O)NC8=O)C9=O)CC7)C6)nc5)ncc34)nn2C2CCOCC2)C1 (stereo unspecified)	62	44	4.8	75	81	25	–	–	–	–	–	–	–	–	–
